These are literature values, as cited in US11931445B2, “Composition comprising baicalin” (L'OREAL, priority 2016, dated 2024).

For data set [1] the following is noted: pH more than 6.5.

For the substance Baicalin, the “solubility in an aqueous medium” value is recorded as “very slightly soluble”. In data set [1], the chemical stability entry is on record as “chemically unstable”.
